Laboratory results: US20030144295A1, “Treatment for ischemic stroke” (YAMANOUCHI PHARMACEUTICAL CO., LTD., priority 2001, published 2003)

Experiments:
[1] = cited from earlier work
AMPA receptor = settings: cited from earlier work
[2] = test system: rat embolic stroke models; assay: Infarct volume (TTC staining) in rat embolic stroke models, Example 1; type: in vivo, rat (male Sprague-Dawley); settings: 24 hours after blood clot injection; administration started 2 hours after clot; alteplase 10 mg/kg i.v., compound A 20 mg/kg/hour i.v. for 4 hours; n=8; control 361.2±20.9
Method: FIG. 1: Effect of a combined use of compound A with alteplase on infarct volume in rat embolic stroke models. Administration of compound A (20 mg/kg/hr; i.v. for 4 hours) and alteplase (10 mg/kg; i.v.; 10% of the total dose was subjected to an intravenous bolus administration while the remainder (90%) was subjected to an intravenous administration continuously over 1 hour) was initiated 2 hours after the injection of blood clot. After 24 hours from the infusion of the blood clot, the brain was excised, sliced and stained with TTC. The data in the drawing show a mean value±standard error (n=8). The symbol * means a statistically significant difference from a control group or an alteplase-administered group (*p<0.05; Dunnett's test or t-test). […]
(§1) Evaluation of formation of cerebral embolism by injection of blood clot was carried out using a laser Doppler flowmetry (FloC1; Omegawave) and the cerebral blood flow decreased to a level of 30% or less of the blood clot value immediately after ischemia was taken as a positive evidence of embolism formation. […] The cerebral blood flow was monitored until 30 minutes after infusion of the blood clot and the blood flow of 30 minutes after ischemia was confirmed to-remain 50% or less than the value prior to the injection of the blood clot. […]

[3] = test system: rat embolic stroke models; assay: Neurological symptoms (Bederson score) in rat embolic stroke models, Example 1; type: in vivo, rat (male Sprague-Dawley); settings: Bederson score 0-3, 24 hours after blood clot injection; administration started 2 hours after clot; alteplase 10 mg/kg i.v., compound A 20 mg/kg/hour for 4 hours; n=8; control 2.5
Method: FIG. 2: Effect of a combined use of compound A with alteplase on neurological symptoms in rat embolic stroke models. Administration of zonampanel (20 mg/kg/hr; i.v. for 4 hours) and alteplase (10 mg/kg; i.v.; 10% of the total dose was subjected to an intravenous bolus administration while the remainder (90%) was subjected to an intravenous administration continuously over 1 hour) was initiated 2 hours after the injection of blood clot. After 24 hours from the injection of the blood clot, the neurological symptoms were observed. Data in the drawing show the data derived from each animal (n=8). The symbol * means a statistically significant difference from a control group or an alteplase-administered group (*p<0.05; Steel's test or Wilcoxon-test). […]
as §1

Molecule	solubility in water [1]	AMPA binding activity (AMPA receptor)	infarct volume (mean value±standard error) [2]	neurological symptom score (median value) [3]
O=C(O)Cn1c(=O)c(=O)[nH]c2cc([N+](=O)[O-])c(-n3ccnc3)cc21 [compound A, [7-(1H-imidazol-1-yl)-6-nitro-2,3-dioxo-3,4-dihydroquinoxalin-1(2H)-yl]acetic acid]	high	strong and selective	194.6±50.6 mm^3	2
Alteplase [reference compound]			202.7±49.3 mm^3	
